Test results from paper PMC4076079, “Selective inhibitors of a PAF biosynthetic enzyme lysophosphatidylcholine acyltransferase 2” (Journal of Lipid Research, 2014).

System: mouse peritoneal macrophages
Assay: PAF and lyso-PAF production in LPS-primed, A23187-stimulated peritoneal macrophages
Format: cell-based
Conditions: 5 μM A23187 5 min
Protocol: RAW-mLPCAT2 cells and peritoneal macrophages were seeded in 24-well plates (4 × 10^6 cells/well) for 24 or 2 h, respectively, before treatment. RAW-mLPCAT2 cells were stimulated with 5 μM A23187 for 5 min after a 1 h treatment with the compounds. Peritoneal macrophages were preincubated with 100 ng/ml LPS for 18 h, treated with the compounds for 1 h, and stimulated with 5 μM A23187 for 5 min. To analyze cellular PAF levels, lipids were extracted with 500 μl methanol containing d4-PAF and d4-lyso-PAF as internal standards. Each sample was submitted to solid phase extraction using an Oasis HLB 96-well cartridge cluster (Waters), and PAF and lyso-PAF were measured by LC-MS/MS as previously described ([13]).
Chromatography was performed using an Acquity™ Ultra-performance LC system (Waters) coupled to a TSQ Vantage triple stage quadrupole mass spectrometer (Thermo Scientific) with a HESI-II electrospray ionization source ([13]). Phospholipids were separated on BEH C8 columns (1.7 μm, 2.1 × 30 mm or 1 × 100 mm; Waters) for the analysis of assay products or the composition of cellular PAF and lyso-PAF, respectively. The mobile phase contained 20 mM aqueous ammonium bicarbonate and acetonitrile. The extracts from peritoneal macrophages were separated on a Kinetex C8 column (1.7 μm, 2.1 × 100 mm; Phenomenex, Torrance, CA) by a gradient elution with 0.05% formic acid-water and acetonitrile, using the Nexera X2 system and LCMS-8080 mass spectrometer (Shimadzu, Kyoto, Japan) ([13]). Lyso-PAF, d4-PAF, and d31-DPPC were identified by the choline fragment (m/z 184) as a product ion of selected reaction monitoring in the positive ion mode. Nonlabeled PAF and d4-16:0/20:4 alkyl-PC were determined by fatty acid anions of sn-2 composition (m/z 59 and 303, respectively) in the negative ion mode. […] Signal intensities were determined relative to the internal standard or as the percentage of the positive control.
The effect of TSI-01 on PAF and lyso-PAF biosynthesis was evaluated using thioglycollate-elicited mouse peritoneal macrophages. […]

**Q.** How did the PAF levels (60 μM TSI-01, LPS 18 h, compound 1 h) turn out when CC(C)OC(=O)c1ccc(N2C(=O)C(Cl)=C(Cl)C2=O)cc1 [TSI-01, propan-2-yl 4-(3,4-dichloro-2,5-dioxopyrrol-1-yl)benzoate] was run?
**A.** The PAF levels was “below the detection limit”.

**Q.** What about the “PAF levels in A23187-stimulated cells” value (LPS 100 ng/ml 18 h, TSI-01 1 h) of the same compound?
**A.** The value was “decreased”.

**Q.** And the lyso-PAF levels (LPS 100 ng/ml 18 h, TSI-01 1 h)?
**A.** Its lyso-PAF levels is “not changed”.
